# Measurements taken from patent US7763463B2, “Use of cyclic AMP and ascorbic acid to produce dopaminergic neurons from embryonic stem cells” (Geron Corporation, priority 2000, dated 2010).
# B1: follistatin: TGF-β superfamily antagonist (protein, UniProt P19883 30-344, looked up)
# Follistatin: GNCWLRQAKNGRCQVLYKTELSKEECCSTGRLSTSWTEEDVNDNTLFKWMIFNGGAPNCIPCKETCENVDCGPGKKCRMNKKNKPRCVCAPDCSNITWKGPVCGLDGKTYRNECALLKARCKEQPELEVQYQGRCKKTCRDVFCPGSSTCVVDQTNNAYCVTCNRICPEPASSEQYLCGNDGVTYSSACHLRKATCLLGRSIGLAYEGKCIKAKSCEDIQCTGGKKCLWDFKVGRGRCSLCDELCPDSKSDEPVCASDNATYASECAMKEAACSSGVLLEVKHSGSCNSISEDTEEEEEDEDQDYSFPISSILEW
# B2: noggin: TGF-β superfamily antagonist (protein, UniProt Q13253 28-232, looked up)
# Noggin: QHYLHIRPAPSDNLPLVDLIEHPDPIFDPKEKDLNETLLRSLLGGHYDPGFMATSPPEDRPGGGGGAAGGAEDLAELDQLLRQRPSGAMPSEIKGLEFSEGLAQGKKQRLSKKLRRKLQMWLWSQTFCPVLYAWNDLGSRFWPRYVKVGSCFSKRSCSVPEGMVCKPSKSVHLTVLRWRCQRRGGQRCGWIPIQYPIISECKCSC
# B3: BDNF: brain derived neurotrophic factor, member of the neurotrophin growth factor family (protein, UniProt P23560 19-247, looked up)
# Neurotrophic factor BDNF …: APMKEANIRGQGGLAYPGVRTHGTLESVNGPKAGSRGLTSLADTFEHVIEELLDEDQKVRPNEENNKDADLYTSRVMLSSQVPLEPPLLFLLEEYKNYLDAANMSMRVRRHSDPARRGELSVCDSISEWVTAADKKTAVDMSGGTVTVLEKVPVSKGQLKQYFYETKCNPMGYTKEGCRGIDKRHWNSQCRTTQSYVRALTMDSKKRIGWRFIRIDTSCVCTLTIKRGR
# B4: neurotrophin-3: member of the neurotrophin growth factor family (protein, UniProt P20783 139-257, looked up)
# Neurotrophin-3: YAEHKSHRGEYSVCDSESLWVTDKSSAIDIRGHQVTVLGEIKTGNSPVKQYFYETRCKEARPVKNGCRGIDDKHWNSQCKTSQTYVRALTSENNKLVGWRWIRIDTSCVCALSRKIGRT
# Tests used:
# Type in all cases: cell-based, human
# [1] = system: hES cell derived neurons; assay: Fura-2 imaging of calcium flux; conditions: of the 53 cells tested; cells responding to GABA, acetylcholine, ATP and elevated potassium; 0.5 mM neurotransmitter, ATP 10 μM
# Description: Standard fura-2 imaging of calcium flux was used to investigate the functional properties of the hES cell derived neurons. Neurotransmitters studied included GABA, glutamate (E), glycine (G), elevated potassium (50 mM K^+ instead of 5 mM K^+), ascorbic acid (control), dopamine, acetylcholine (ACh) and norepinephrine. The solutions contained 0.5 mM of the neurotransmitter (except ATP at 10 μM) in rat Ringers (RR) solution: 140 mM NaCl, 3 mM KCl, 1 mM MgCl2, 2 mM CaCl2, 10 mM HEPES buffer, and 10 mM glucose. External solutions were set to pH 7.4 using NaOH. Cells were perfused in the recording chamber at 1.2-1.8 mL/min, and solutions were applied by bath application using a 0.2 mL loop injector located ˜0.2 mL upstream of the bath import. Transient rises in calcium were considered to be a response if the calcium levels rose above 10% of the baseline value within 60 sec of application, and returned to baseline within 1-2 min.
# [2] = system: embryoid bodies from hES cells; assay: Embryoid bodies with or without retinoic acid, then NT-3/BDNF; MAP-2 staining; conditions: embryoid bodies maintained in 10 μM RA 4 days; then mitogens, then 10 ng/mL NT-3 and BDNF; without RA ~5%
# Description: To generate terminally differentiated neurons, the first stage of differentiation was induced by forming embryoid bodies in FBS medium with or without 10 μM retinoic acid (RA). After 4 days in suspension, embryoid bodies were plated onto fibronectin-coated plates in defined medium supplemented with 10 ng/mL human EGF, 10 ng/mL human bFGF, 1 ng/mL human PDGF-AA, and 1 ng/mL human IGF-1. The embryoid bodies adhered to the plates, and cells began to migrate onto the plastic, forming a monolayer.
# The cell populations were further differentiated by replating the cells in a medium containing none of the mitogens, but containing 10 ng/mL Neurotrophin-3 (NT-3) and 10 ng/mL brain-derived neurotrophic factor (BDNF). Neurons with extensive processes were seen after about 7 days. […] GaIC positive cells were identified, but the cells were large and flat rather than having complex processes.
# [3] = system: hES cells of the H7 line; assay: Direct differentiation: noggin, follistatin and retinoic acid (FIG. 6); conditions: 15 days with Treatment D, cAMP 700 μg; antagonists used for varying time periods
# Source text: Noggin is apparently important at about the 1 week point (days 5 to 8), while follistatin is important at around the 2 week point (days 13 to 15), maximizing production of mature neurons rather than small neurites.
# Virtually no β-tubulin positive neurons were formed in the absence of noggin or follistatin. […] It is hypothesized that initial noggin/follistatin induction generates a neural progenitor cell, which subsequently can be induced to form neurons by the addition of other factors.
# Cells were differentiated according to treatment F as previously (left 2 bars) or omitting retinoic acid (right 2 bars).
# [4] = system: hES cells; assay: Effect of neurotrophins on direct differentiation, β-tubulin positive cell count; conditions: 7 days of differentiation; BDNF 10 ng/mL, neurotrophin-3 1 ng/mL
# Description: The effect of several members of the neurotrophin growth factor family was examined. hES cells were differentiated by harvesting with collagenase, dissociating, and reseeding onto poly-ornithine coated cover slips. The cells were plated into DMEM/F12+N2+10% FBS overnight. The following day, the serum was removed from the medium and replaced with 10 ng/mL human bFGF and the growth factor being tested. After 24 hours, bFGF was removed from the medium. These cultures were fed every other day. They were fixed after 7 days of differentiation and immunostained for analysis. The number of neurons was evaluated by counting cells positive for β-tubulin. Cultures maintained in the presence of 10 ng/mL brain derived neurotrophic factor (BDNF) formed approximately 3-fold more neurons than the control cultures. Cultures maintained in neurotrophin-3 (1 ng/mL) formed approximately 2-fold more neurons than control cultures.
molecule,measurement,setting,value
CC(=O)OCC[N+](C)(C)C [acetylcholine],cells that responded (calcium rise),[1],26
"NCCCC(=O)O [GABA, γ-amino butyric acid]",cells that responded (calcium rise),[1],26
CC1=C(/C=C/C(C)=C/C=C/C(C)=C/C(=O)O)C(C)(C)CCC1 [retinoic acid],MAP-2 positive cells,[2],~26%
Nc1ncnc2c1ncn2[C@@H]1O[C@H](COP(=O)(O)OP(=O)(O)OP(=O)(O)O)[C@@H](O)[C@H]1O [ATP],cells that responded (calcium rise),[1],26
B1,contribution to neuron differentiation,[3],"contribute to neuron differentiation, and work synergistically"
B2,contribution to neuron differentiation,[3],"contribute to neuron differentiation, and work synergistically"
B3,neurons formed (β-tubulin positive cells) relative to control cultures,[4],approximately 3 fold
B4,neurons formed (β-tubulin positive cells) relative to control cultures,[4],approximately 2 fold
